From paper PMC8087847, “Effects of self-assembled cell-penetrating peptides and their nano-complexes on ABCB1 expression and activity” (Iranian Journal of Basic Medical Sciences, 2021) come the findings set out here.

“Also recorded” adds a separate entry of the source. Like-named read-outs stand apart in the source and are kept apart here. No end group written: not given here.

Data set [1] relates to A549 Dox-resistant cells. As to the kind of experiment: MTT cell viability, effect of CPPs on Dox cytotoxicity.
Procedure: (§1) A549 cell line is derived from a drug-resistant human lung carcinoma tissue and adherent in culture. […] It was cultured in RPMI-1640 medium supplemented with 10% FBS, 100 units/ml penicillin, and 100 µg/ml streptomycin at 37 °C in 5% CO2 a humidified atmosphere. Moreover, to develop resistance, 0.1 µM Dox was added to the medium which was not toxic to the cells.
(§2) Cells were detached from flasks by trypsin and seeded in 96-well plates with a cell density of 1.5×10^4 cells/well (containing 200 μl/well of medium) and incubated for 24 hr at 37 °C in a humidified atmosphere of 5% CO2. The next day, cells were treated with different concentrations of peptides (15, 25, 50 μM), and incubated at the same condition for 24 hr. […] Data were collected from at least 3 independent experiments performed in triplicates and analyzed using the Graphpad Prism 7 software package.
For data set [2], the system named is A549 cells. As to the kind of experiment: Cellular uptake of FAM-labeled peptides by flow cytometry. Conditions: different concentrations, comparison stated in discussion.
Procedure: (§3) First, cells were seeded in 6-well plates (3×10^5 cells/well) and incubated for 24 hr. Then the medium was removed and cells were washed with PBS. FAM-labeled peptides and nano-complexes were added to wells and incubation was continued for 90 min. The old medium was removed and cells were washed with PBS three times and detached by trypsin/EDTA. Then 2 ml of medium was added to each well, and cells were centrifuged for 5 min, followed by washing three times with PBS and finally suspended in flow cytometry buffer to study the cellular uptake of FAM-labeled peptides and nano-complexes.
Data set [3] deals with A549 cells.
Procedure: as §3
Data set [4] concerns A549 Dox-resistant cells.
Procedure: as §1, §2

As usually defined, the IC50 is the concentration needed to halve the response being measured. Turning to `COc1cccc2c1C(=O)c1c(O)c3c(c(O)c1C2=O)C[C@@](O)(C(=O)CO)C[C@@H]3O[C@H]1C[C@H](N)[C@H](O)[C@H](C)O1` [Dox, Doxorubicin, reference compound], in the data set on A549 Dox-resistant cells [1] (Homo sapiens, A549, read-out: IC50 of Dox), the IC50 worked out at 20 µM.

On to `N=C(N)NCCC[C@H](NC(=O)[C@H](CCCNC(=N)N)NC(=O)[C@H](CCCNC(=N)N)NC(=O)[C@H](CCCNC(=N)N)NC(=O)[C@H](CCCNC(=N)N)NC(=O)[C@H](CCCNC(=N)N)NC(=O)[C@H](CCCNC(=N)N)NC(=O)[C@H](CCCNC(=N)N)NC(=O)[C@H](CCCNC(=N)N)NC(=O)[C@@H](N)CCCNC(=N)N)C(=O)O` [Peptide P7], for which the “effect on Dox cytotoxicity” value in the data set with A549 Dox-resistant cells [1] (25 µM and 50 µM peptide, 20 µM Dox, 24 hr (Figure 3a), MTT) was “resulted in Dox cytotoxicity; also recorded: increased the Dox toxicity”; in the data set with A549 Dox-resistant cells [1] (after 48 hr, peptide concentration not stated (abstract)), “increased Dox cytotoxicity”. Also, the “effect on cytotoxicity of Dox” value in the data set on A549 Dox-resistant cells [1] (50 µM peptide, 20 µM Dox, after 48 hr (Figure 3b), MTT) was “increased the cytotoxicity of Dox”. In the data set on A549 cells [2], the “cellular uptake (discussion, method not specified)” value is “higher uptake efficacy”.

Usually cell viability stands for a per cent measure of how many cells are alive, often set against a control. Consider KKKKKKKKKK [Peptide P8], for which, in the data set with A549 cells [3], the “cellular uptake (discussion, method not specified)” value is reported as “higher uptake compared with P8/E10 nano-complexes”. Besides, the cell viability with A549 Dox-resistant cells [1] (15 µM peptide 24 hr pre-treatment, then 20 µM Dox, 24 hr, MTT, at least 3 independent experiments in triplicates) was found to be 52.5%. For the same compound, the “effect on Dox cytotoxicity” value with A549 Dox-resistant cells [4] is “increased Dox cytotoxicity”.
